Data as given in PubChem BioAssay (NCI).
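Five compound concentrations were applied to cells in 96-well plates for 48 hours; endpoints were derived by simple linear interpolation of the resulting dose-response curve. TGI denotes the concentration required for complete inhibition of growth.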

Experiments:
Test in all cases: inhibition of tumour cell growth, NCI panel, 48 h
RPMI-8226 leukemia = test system: RPMI-8226 leukemia
M14 melanoma = test system: M14 melanoma
K-562 leukemia = test system: K-562 leukemia
SF-539 CNS = test system: SF-539 CNS
CCRF-CEM leukemia = test system: CCRF-CEM leukemia
SF-295 CNS = test system: SF-295 CNS
HS 578T breast = test system: HS 578T breast
A549 NSCLC = test system: A549 NSCLC
SK-MEL-2 melanoma = test system: SK-MEL-2 melanoma
T-47D breast = test system: T-47D breast
BT-549 breast = test system: BT-549 breast
TK-10 renal = test system: TK-10 renal
SNB-19 CNS = test system: SNB-19 CNS
ACHN renal = test system: ACHN renal
UACC-257 melanoma = test system: UACC-257 melanoma
HCT-116 colon = test system: HCT-116 colon
MOLT-4 leukemia = test system: MOLT-4 leukemia
KM12 colon = test system: KM12 colon
786-0 renal = test system: 786-0 renal
LOX IMVI melanoma = test system: LOX IMVI melanoma
NCI-H226 lung = test system: NCI-H226 lung
PC-3 prostate = test system: PC-3 prostate
NCI/ADR-RES ovarian = test system: NCI/ADR-RES ovarian
HCC-2998 colon = test system: HCC-2998 colon
MALME-3M melanoma = test system: MALME-3M melanoma
OVCAR-3 ovarian = test system: OVCAR-3 ovarian
HT29 colon = test system: HT29 colon
HL-60(TB) leukemia = test system: HL-60(TB) leukemia
IGROV1 ovarian = test system: IGROV1 ovarian
SK-OV-3 ovarian = test system: SK-OV-3 ovarian
OVCAR-8 ovarian = test system: OVCAR-8 ovarian
NCI-H460 lung = test system: NCI-H460 lung
HOP-92 NSCLC = test system: HOP-92 NSCLC
A498 renal = test system: A498 renal
HCT-15 colon = test system: HCT-15 colon
SN12C renal = test system: SN12C renal
RXF 393 renal = test system: RXF 393 renal
SK-MEL-5 melanoma = test system: SK-MEL-5 melanoma
OVCAR-5 ovarian = test system: OVCAR-5 ovarian
HOP-62 NSCLC = test system: HOP-62 NSCLC
OVCAR-4 ovarian = test system: OVCAR-4 ovarian
NCI-H23 lung = test system: NCI-H23 lung
SNB-75 CNS = test system: SNB-75 CNS
SF-268 CNS = test system: SF-268 CNS
CAKI-1 renal = test system: CAKI-1 renal
SW-620 colon = test system: SW-620 colon
MCF7 breast = test system: MCF7 breast
NCI-H522 lung = test system: NCI-H522 lung
DU-145 prostate = test system: DU-145 prostate
SR leukemia = test system: SR leukemia
EKVX NSCLC = test system: EKVX NSCLC
COLO 205 colon = test system: COLO 205 colon
UO-31 renal = test system: UO-31 renal
SK-MEL-28 melanoma = test system: SK-MEL-28 melanoma
U251 CNS = test system: U251 CNS
MDA-N = test system: MDA-N

Measured: TGI

CC1=NN(c2nc(N)nc(C(C)Sc3cc(Cl)c(C)cc3S(N)(=O)=O)n2)C(C)(C)C1 (stereo unspecified)
> 10 µM: all assays above
